From patent US20260294836A1, “REMOTE CONTROL AND QUANTITATIVE MONITORING OF DRUG RELEASE FROM NANOPARTICLES BASED ON MAGNETIC PARTICLE IMAGING” (Board of Trustees of Michigan State University, priority 2022, published 2026)

Legend:
Assay type in all cases: in vivo, Balb/c mice
4T1 tumor [1] = assay: Short-term tumor inhibition (BLI, tumor size, 15 days); details: DOX alone
Experimental: (§1) The 4T1 tumor-bearing Balb/c mice may be randomly divided into six groups. In at least one example embodiment, each group may include three mice. In at least one example embodiment, a first group may receive PLGA. In at least one example embodiment, a second group may receive SPNCD. In at least one example embodiment, a third group may receive SPNCD and may be irradiated with NIR for 1 minute. In at least one example embodiment, a fourth group may receive SPNCD and may be irradiated with NIR for 7 minutes. In at least one example embodiment, a fifth group may receive SPNC and may be irradiated with NIR for 1 minute. In at least one example embodiment, a sixth group may receive DOX.
(§2) Once tumor volumes reach or become greater than 100 mm^3, the mice may be intratumorally injected with the various conditions (e.g., PLGA in the instance of the first group, SPNCD in the instance of the second group, SPNCD+NIR-1 minute in the instance of the third group, SPNCD+NIR-7 minute in the instances of the fourth group, SPNC+NIR-1 minute in the instance of the fifth group, and DOX in the instance of the sixth group) every 2 days for 15 days. Tumor size and mouse body weight may be measured every 2 days for 15 days in total. […]

4T1 tumor [2] = assay: Apoptosis in tumors (flow cytometry and TUNNEL assay); details: no NIR
Experimental: as §1, §2

F4/80-positive TAM = assay: F4/80 immunostaining of tumor sections (TAM accumulation); details: without NIR
Experimental: as §1, §2

4T1 tumor [3] = assay: Long-term tumor inhibition and metastasis, 4T1 tumor mice; details: DOX alone; PBS 30 days
Experimental: The 4T1 cells may be implanted into the mammary fat pads of six-week-old female Balb/c mice. In at least one example embodiment, about 1×10^6 cells may be implanted per mouse.
4T1 tumor-bearing Balb/c mice and BT549 tumor-bearing Nude mice ay be randomly divided into three groups. In at least one example embodiment, each group may include eight mice (PBS, SPNCD+NIR 7 min, DOX). Once tumor volumes reach or become greater than 100 mm^3, 4T1 tumor-bearing mice (DOX: 0.122 mg/kg) and BT549 tumor-bearing mice (DOX: 1.5 mg/kg) may be intratumorally injected with agents from the various conditions every 2 days for 15 days followed by NIR irradiation (808 nm, 1W). In at least one example embodiment, the DOX dose may be determined based on the IC50 of each cell line. Tumor size and mouse weight may be measured every 3 days for 80 days in total. Bioluminescence imaging (e.g., PerkinElmer, USA) may be conducted every 3 days by intraperitoneally injected D luciferin (e.g., 150 mg/kg) into 4T1 tumor-bearing Balb/c mice to observe the metastasis of 4T1 tumor-bearing Balb/c mice.
Tumor growth, mouse bodyweight, and tumor metastasis may be monitored for 80 days in 4T1 DOX-sensitive and BT459 DOX-resistant tumor mice. The mice may be randomly divided into four groups. In at least one example embodiment, each group may include five mice. […]

SMILES: COc1cccc2c1C(=O)c1c(O)c3c(c(O)c1C2=O)C[C@@](O)(C(=O)CO)C[C@@H]3O[C@H]1C[C@H](N)[C@H](O)[C@H](C)O1 [DOX, doxorubicin]
- tumor size (4T1 tumor [1]): did not increase in size
- apoptosis in tumor (4T1 tumor [2]): induced significant apoptosis
- F4/80-positive TAM accumulation versus PLGA treated groups (F4/80-positive TAM): increased more
- time-to-tumor metastasis (4T1 tumor [3]): 60 days post injection
